According to a compilation of properties of binary mixtures (doi:10.1021/acs.jced.0c00987):

Experiment: xn = mol fraction of the nth substance listed
Details: 100 kPa

CCOS(=O)(=O)[O-].CC[n+]1ccn(C)c1 + OCCO
Details	electrical conductivity, 298.15 K [S/m]	electrical conductivity, 313.15 K [S/m]	viscosity, 293.15 K [mPa·s]	viscosity, 298.15 K [mPa·s]	viscosity, 303.15 K [mPa·s]	viscosity, 313.15 K [mPa·s]
x1 = 0.001	–	0.0161	–	–	13.5	9.345
x1 = 0.003	0.0213	–	20.6	16.7	–	–
x1 = 0.008	0.057	–	20.6	16.7	13.7	–
x1 = 0.014	0.096	0.162	20.3	16.5	13.5	9.4
x2 = 0	–	–	123.5	–	75.7	49.7
x2 = 0.304	0.68	1.13	54.6	44.5	36.7	25.1
x2 = 0.406	0.79	–	–	34.4	28.7	–
x2 = 0.506	0.86	1.36	32.3	26.9	22.7	16.6
x2 = 0.597	–	1.48	25.8	–	18.3	13.5
x2 = 0.7	0.97	1.51	20.9	17.6	14.9	11
x2 = 0.792	0.87	1.38	18.4	15.4	–	9.59
x2 = 0.851	–	1.16	17.8	–	12.5	9.08
x2 = 0.899	0.53	0.86	18	14.9	12.4	8.92
x2 = 0.938	0.36	–	18.6	15.3	12.7	–
x2 = 0.972	0.178	0.299	19.7	16.1	13.2	9.28

OCCO + CCOS(=O)(=O)[O-].CC[n+]1ccn(C)c1
x1 = 1
Details	viscosity [mPa·s]
293.15 K	20.8
313.15 K	9.52

CC[n+]1ccn(C)c1.O=S(=O)([O-])C(F)(F)F + OCCO
Details	electrical conductivity, 298.15 K [S/m]	electrical conductivity, 313.15 K [S/m]	viscosity, 293.15 K [mPa·s]	viscosity, 298.15 K [mPa·s]	viscosity, 303.15 K [mPa·s]	viscosity, 313.15 K [mPa·s]
x1 = 0.001	–	0.0144	20.75	–	13.8	9.535
x1 = 0.002	0.0193	0.0335	20.6	16.7	–	9.46
x1 = 0.007	0.054	0.093	–	16.5	13.5	9.39
x1 = 0.013	0.082	0.137	20.1	16.3	–	9.28
x2 = 0.2	1.21	1.83	32.8	27.6	–	17.3
x2 = 0.413	1.44	2.17	21.9	18.6	15.9	11.9
x2 = 0.497	–	–	19.4	16.4	14	–
x2 = 0.498	1.51	2.28	–	–	–	–
x2 = 0.586	1.41	2.12	–	–	–	–
x2 = 0.587	–	–	17.6	14.8	12.7	9.5
x2 = 0.697	1.25	1.91	15.8	13.3	11.3	8.39
x2 = 0.808	0.95	–	15.7	13	11	–
x2 = 0.863	0.74	1.2	15.6	12.9	10.1	7.81
x2 = 0.907	0.52	0.87	17.1	14.1	11.7	8.32
x2 = 0.944	0.331	0.56	18.3	15	12.4	8.71
x2 = 0.974	0.161	0.276	–	15.9	13.1	9.1

CCOS(=O)(=O)[O-].CC[n+]1ccn(C)c1 + OCCN(CCO)CCO
x2 = 0
Details	viscosity [mPa·s]
293.15 K	123.5
298.15 K	95.9
313.15 K	49.7

OCCN(CCO)CCO + CCOS(=O)(=O)[O-].CC[n+]1ccn(C)c1
Details	electrical conductivity, 298.15 K [S/m]	electrical conductivity, 313.15 K [S/m]	viscosity, 293.15 K [mPa·s]	viscosity, 298.15 K [mPa·s]	viscosity, 303.15 K [mPa·s]	viscosity, 313.15 K [mPa·s]
x1 = 0.153	0.356	–	–	97.8	77.1	–
x1 = 0.285	0.284	0.53	121.9	94.1	74	48.1
x1 = 0.52	0.173	0.349	137.4	103.5	79.5	49.8
x1 = 0.617	0.126	0.266	–	117.8	–	54.3
x1 = 0.703	0.085	0.189	209.4	151.8	112.4	66
x1 = 0.787	–	0.108	286.6	–	146.5	82.5
x1 = 0.866	0.0219	0.055	416	287.3	–	110.1
x1 = 0.929	–	0.0234	583	–	–	143.5
x1 = 0.967	–	0.0103	–	–	–	167.7
x2 = 0.003	0.0004	0.0012	871	579	394	197.1
x2 = 0.006	0.0008	0.0021	857	570	–	195.3
x2 = 0.019	0.0021	0.0058	792	528	361	182.4

CCOS(=O)(=O)[O-].CC[n+]1ccn(C)c1 + OCC(O)CO
Details	electrical conductivity, 298.15 K [S/m]	electrical conductivity, 313.15 K [S/m]	viscosity, 293.15 K [mPa·s]	viscosity, 298.15 K [mPa·s]	viscosity, 303.15 K [mPa·s]	viscosity, 313.15 K [mPa·s]
x1 = 0.002	0.0004	–	1381.9	892	590	–
x1 = 0.004	0.0006	–	1352.7	873	578	–
x1 = 0.012	0.002	0.0063	1239	804	535	255.6
x2 = 0	–	–	123.5	95.9	75.7	49.7
x2 = 0.123	–	0.72	114.1	–	70.7	46.7
x2 = 0.264	0.386	0.71	104.7	81.9	–	43.1
x2 = 0.39	0.365	0.67	101.5	79.1	62.6	41.2
x2 = 0.5	0.313	0.6	–	81.2	–	41.2
x2 = 0.601	–	0.496	121	–	70.4	44.1
x2 = 0.703	0.173	0.371	162.3	119.2	89.3	53.3
x2 = 0.794	0.089	0.209	248.6	176.4	128	72.1
x2 = 0.901	0.026	0.071	533	360	249.8	129.3
x2 = 0.958	0.0075	–	922	604	406	–
x2 = 0.98	0.0033	0.0102	1138.7	742	–	237.9

OCCN(CCO)CCO + CC[n+]1ccn(C)c1.O=S(=O)([O-])C(F)(F)F
Details	electrical conductivity, 298.15 K [S/m]	electrical conductivity, 313.15 K [S/m]	viscosity, 293.15 K [mPa·s]	viscosity, 298.15 K [mPa·s]	viscosity, 303.15 K [mPa·s]	viscosity, 313.15 K [mPa·s]
x1 = 0.084	0.82	1.29	–	43.4	–	25.7
x1 = 0.167	0.72	–	55.7	45.1	–	–
x1 = 0.305	0.53	0.92	66.8	52.5	42	28.2
x1 = 0.426	–	0.63	86.2	–	51	32.8
x1 = 0.539	–	0.463	118.7	–	66.2	40.7
x1 = 0.641	0.137	0.296	165	118.4	–	50.9
x1 = 0.723	0.079	–	233.1	163.2	117.4	–
x1 = 0.802	0.041	0.102	336	228.6	160.6	86.3
x1 = 0.875	–	0.05	477	–	220.7	114.8
x1 = 0.94	0.0067	0.019	678	449	306.2	155
x1 = 0.969	0.0032	0.0092	793	523	355	177.4
x2 = 0.003	0.0004	0.0012	913	599	405	200.7
x2 = 0.006	0.0007	–	902	591	–	–
x2 = 0.017	0.0019	0.0054	848	557	377	188

OCCO + CC[n+]1ccn(C)c1.O=S(=O)([O-])C(F)(F)F
x1 = 1
Details	viscosity [mPa·s]
293.15 K	20.8
298.15 K	16.8
303.15 K	13.8
313.15 K	9.52

CC[n+]1ccn(C)c1.O=S(=O)([O-])C(F)(F)F + OCC(O)CO
Details	electrical conductivity, 298.15 K [S/m]	electrical conductivity, 313.15 K [S/m]	viscosity, 293.15 K [mPa·s]	viscosity, 298.15 K [mPa·s]	viscosity, 303.15 K [mPa·s]	viscosity, 313.15 K [mPa·s]
x1 = 0.002	0.0003	0.0008	–	887	588	280.1
x1 = 0.004	0.0006	0.0018	1333.2	862	572	272.9
x1 = 0.011	0.0014	0.0044	1257.8	815	543	259.2
x1 = 0.018	0.0025	–	1168.4	760	506	–
x2 = 0.199	0.85	1.35	–	40.1	33.2	23.6
x2 = 0.299	0.77	–	50.2	40.7	33.4	–
x2 = 0.401	–	1.16	57.2	–	36.6	24.9
x2 = 0.499	0.492	0.89	70.2	54.4	42.9	28
x2 = 0.605	0.316	0.6	–	73.4	56	34.7
x2 = 0.698	0.198	0.416	–	106.2	78.8	46.3
x2 = 0.805	0.089	0.21	261.5	182.8	130.6	71.6
x2 = 0.899	0.0255	0.066	545	366	251.6	128.5
x2 = 0.919	0.0172	0.0486	646	430	293.3	147.6
x2 = 0.962	0.0056	0.0174	–	633	–	206.8
